From patent US6642238B2, “Oxazolidinone thioamides with piperazine amide substituents” (Pharmacia and Upjohn Company, priority 2000, dated 2003)
Values after ≈ are worked out from the molar mass of the structure shown.

What was measured:
[1] = system: Staphylococcus aureus (SAUR 9213); assay: MIC by agar dilution, SAUR 9213; type: cell-based; conditions: Staphylococcus aureus, Minimum Inhibitory Concentration, strain SAUR 9213
Text: (§1) The oxazolidinone antibacterial agents of this invention have useful activity against a variety of organisms. The in vitro activity of compounds of this invention can be assessed by standard testing procedures such as the determination of minimum inhibitory concentration (MIC) by agar dilution as described in “Approved Standard. Methods for Dilution Antimicrobial Susceptibility Tests for Bacteria That Grow Aerobically”, 3rd. ed., published 1993 by the National Committee for Clinical Laboratory Standards, Villanova, Pa., USA. The activity of compounds of this invention against Staphylococcus aureus, Staphylococcus epidermidis, Streptococcus pneumoniae, Streptococcus pyogens, Enterococcus faecalis, Moraxella catarrhalis and H. influenzae is shown in Table 1.

[2] = system: Staphylococcus epidermidis (SEPI 30593); assay: MIC by agar dilution, SEPI 30593; type: cell-based; conditions: Staphylococcus epidermidis, Minimum Inhibitory Concentration, strain SEPI 30593
Text: as §1

[3] = system: Enterococcus faecalis (EFAE 12712); assay: MIC by agar dilution, EFAE 12712; type: cell-based; conditions: Enterococcus faecalis, Minimum Inhibitory Concentration, strain EFAE 12712
Text: as §1

[4] = system: Streptococcus pneumoniae (SPNE 9912); assay: MIC by agar dilution, SPNE 9912; type: cell-based; conditions: Streptococcus pneumoniae, Minimum Inhibitory Concentration, strain SPNE 9912
Text: as §1

[5] = system: Streptococcus pyogens (SPYO 152); assay: MIC by agar dilution, SPYO 152; type: cell-based; conditions: Streptococcus, Minimum Inhibitory Concentration, strain SPYO 152
Text: as §1

[6] = system: H. influenzae (HINF 30063); assay: MIC by agar dilution, HINF 30063; type: cell-based; conditions: Haemophilus influenzae, Minimum Inhibitory Concentration, strain HINF 30063
Text: as §1

[7] = system: Enterococcus faecalis (EFAE 9217); assay: MIC by agar dilution, EFAE 9217; type: cell-based; conditions: Enterococcus faecalis, Minimum Inhibitory Concentration, strain EFAE 9217
Text: as §1

[8] = system: Moraxella catarrhalis (MCAT 30607); assay: MIC by agar dilution, MCAT 30607; type: cell-based; conditions: Moraxella catarrhalis, Minimum Inhibitory Concentration, strain MCAT 30607
Text: as §1

| MIC [1] | MIC [2] | MIC [3] | MIC [4] | MIC [5] | MIC [6] | MIC [7] | MIC [8] | melting point | Structure (SMILES) |
| --- | --- | --- | --- | --- | --- | --- | --- | --- | --- |
| 4 µg/mL (≈ 8.8 µM) | 0.5 µg/mL (≈ 1.1 µM) | 1 µg/mL (≈ 2.2 µM) | 0.5 µg/mL (≈ 1.1 µM) | 0.5 µg/mL (≈ 1.1 µM) | 8 µg/mL (≈ 17.6 µM) | 0.5 µg/mL (≈ 1.1 µM) | 2 µg/mL (≈ 4.4 µM) | 142 °C (dec.) | CCC(=S)NC[C@H]1CN(c2ccc(N3CCN(C(=O)[C@@H](O)CO)CC3)c(F)c2)C(=O)O1 [EX 16, N-({(5S)-3-[3-fluoro-4-[4-((2S)-2,3-dihydroxypropanoyl)-1-piperazinyl]phenyl]-2-oxo-1,3-oxazolidin-5-yl}methyl)propanethioamide] |
| 4 µg/mL (≈ 8.8 µM) | 0.5 µg/mL (≈ 1.1 µM) | 1 µg/mL (≈ 2.2 µM) | 0.25 µg/mL (≈ 0.55 µM) | 0.5 µg/mL (≈ 1.1 µM) | 8 µg/mL (≈ 17.6 µM) | 0.5 µg/mL (≈ 1.1 µM) | 2 µg/mL (≈ 4.4 µM) | 132 °C (dec.) | CCC(=S)NC[C@H]1CN(c2ccc(N3CCN(C(=O)[C@H](O)CO)CC3)c(F)c2)C(=O)O1 [EX 17, N-({(5S)-3-[3-fluoro-4-[4-((2R)-2,3-dihydroxypropanoyl)-1-piperazinyl]phenyl]-2-oxo-1,3-oxazolidin-5-yl}methyl)propanethioamide] |
| 2 µg/mL (≈ 3.89 µM) | 2 µg/mL (≈ 3.89 µM) | 2 µg/mL (≈ 3.89 µM) | < 0.5 µg/mL | 1 µg/mL (≈ 1.94 µM) | > 64 µg/mL | 2 µg/mL (≈ 3.89 µM) | 8 µg/mL (≈ 15.5 µM) | 174 to 175 °C | CCC(=S)NC[C@H]1CN(c2ccc(N3CCN(C(=O)[C@@H](O)Cc4ccccc4)CC3)c(F)c2)C(=O)O1 [EX 19, N-[((5S)-3-{3-fluoro-4-[4-((2S)-2-hydroxy-3-phenylpropanoyl)-1-piperazinyl]phenyl}-2-oxo-1,3-oxazolidin-5-yl)methyl]propanethioamide] |
| 1 µg/mL (≈ 1.94 µM) | 1 µg/mL (≈ 1.94 µM) | 1 µg/mL (≈ 1.94 µM) | < 0.5 µg/mL | 1 µg/mL (≈ 1.94 µM) | 64 µg/mL (≈ 124 µM) | 1 µg/mL (≈ 1.94 µM) | 4 µg/mL (≈ 7.77 µM) | 128 to 130 °C (dec.) | CCC(=S)NC[C@H]1CN(c2ccc(N3CCN(C(=O)[C@H](O)Cc4ccccc4)CC3)c(F)c2)C(=O)O1 [EX 20, N-[((5S)-3-{3-fluoro-4-[4-((2R)-2-hydroxy-3-phenylpropanoyl)-1-piperazinyl]phenyl}-2-oxo-1,3-oxazolidin-5-yl)methyl]propanethioamide] |
